Source: patent publication US20140023611A1 (priority 2010, published 2014)
Where a name gives a salt, the structure may show the parent alone.

Experiments:
[1] = molecular target: T1, rat NaP2b (SLC34A2) (Rattus norvegicus, UniProt Q9JJ09); assay: Inhibition of NaP2b-mediated Pi (33P) uptake in transfected HEK293 cells, rat NaP2b; format: cell-based; conditions: 33P Pi uptake, 0.1 mM phosphate, value given as pIC50 range
T1 construct: host or cells: HEK293
T1 sequence (Q9JJ09 1-695): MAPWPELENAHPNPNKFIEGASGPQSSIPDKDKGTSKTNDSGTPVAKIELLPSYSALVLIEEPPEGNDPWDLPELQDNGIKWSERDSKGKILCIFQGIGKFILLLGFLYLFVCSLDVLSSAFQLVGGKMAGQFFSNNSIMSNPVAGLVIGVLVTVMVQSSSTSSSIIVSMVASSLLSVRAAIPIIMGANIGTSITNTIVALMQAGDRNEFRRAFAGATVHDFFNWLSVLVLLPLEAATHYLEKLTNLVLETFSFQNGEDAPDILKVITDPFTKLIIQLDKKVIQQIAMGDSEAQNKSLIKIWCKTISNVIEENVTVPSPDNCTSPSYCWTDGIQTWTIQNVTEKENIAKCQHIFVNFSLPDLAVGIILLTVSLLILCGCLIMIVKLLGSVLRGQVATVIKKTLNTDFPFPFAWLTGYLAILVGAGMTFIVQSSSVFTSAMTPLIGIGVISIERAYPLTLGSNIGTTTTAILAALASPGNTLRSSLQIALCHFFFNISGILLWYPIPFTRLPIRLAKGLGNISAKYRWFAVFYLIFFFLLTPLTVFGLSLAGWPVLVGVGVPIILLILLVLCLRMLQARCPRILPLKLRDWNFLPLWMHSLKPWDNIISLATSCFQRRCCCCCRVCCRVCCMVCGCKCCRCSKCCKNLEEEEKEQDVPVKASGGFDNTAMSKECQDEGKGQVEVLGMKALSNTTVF
Method in brief: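 The cells transiently expressed NaP2b after Lipofectamine transfection. Each compound was run in duplicate over twelve concentrations, 0.1 nM–30 uM.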

[2] = Determination of compound Cmax and AUC after oral gavage (plasma LC-MS/MS); format: in vivo, Sprague-Dawley rats; conditions: Sprague-Dawley, rat, plasma, po, Structure (I) examples
Method in brief: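 Plasma exposure measured by LC-MS/MS after acetonitrile precipitation with internal standard, quantified against a standard curve made in plasma. Compound given orally by gavage to Sprague-Dawley rats at nominal 2.5 or 10 mg/kg, with K2EDTA plasma sampled at 0.5, 1, 2 and 4 h.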

[3] = Table 15, actual oral dose 3-15 mg/kg, plasma 0.5-4 h
[4] = Table 15, actual oral dose 15-40 mg/kg, plasma 0.5-4 h

| Compound | IC50 [1] | AUC [2, 3] | Cmax [2, 3] | AUC [2, 4] | Cmax ([2]; Table 15, plasma 0.5-4 h) |
| --- | --- | --- | --- | --- | --- |
| CCN(CC)c1ccc(NC(=O)c2cccc(CCCOCCOCCOCCOCCOCCOCCOCCOCCOCCC(=O)O)c2)c(-c2cc(C(=O)NCc3cccc(C(F)(F)F)c3)ccn2)c1 [Example 298, 31-(3-(4-(diethylamino)-2-(4-(3-(trifluoromethyl)benzylcarbamoyl)pyridin-2-yl)phenylcarbamoyl)phenyl)-4,7,10,13,16,19,22,25,28-nonaoxahentriacontan-1-oic acid] | 1000 to 7940 nM | – | – | < 30 ng·h/mL | < 30 ng/mL |
| CCN(CC)c1ccc(NC(=O)c2cccc(CCCOCCOCCOCCOCCOCCOCCC(=O)O)c2)c(-c2cc(C(=O)NCc3cccc(C(F)(F)F)c3)ccn2)c1 [Example 299, 22-(3-(4-(diethylamino)-2-(4-(3-(trifluoromethyl)benzylcarbamoyl)pyridin-2-yl)phenylcarbamoyl)phenyl)-4,7,10,13,16,19-hexaoxadocosan-1-oic acid] | 1000 to 7940 nM | – | – | < 30 ng·h/mL | < 30 ng/mL |
| CCN(CC)c1ccc(NC(=O)c2cccc(CCCOCCOCCOCCOCCOCCC(=O)O)c2)c(-c2cc(C(=O)NCc3cccc(C(F)(F)F)c3)ccn2)c1 [Example 300, 19-(3-(4-(diethylamino)-2-(4-(3-(trifluoromethyl)benzylcarbamoyl)pyridin-2-yl)phenylcarbamoyl)phenyl)-4,7,10,13,16-pentaoxanonadecan-1-oic acid] | 1000 to 7940 nM | – | – | < 30 ng·h/mL | < 10 ng/mL |
| CCN(CC)c1ccc(NC(=O)c2cccc(C(=O)N(C)CCN(CCOC)CCOCCOCCOCCOCCOCCOCCOC)c2)c(-c2cc(C(=O)NCc3cccc(C(F)(F)F)c3)ccn2)c1 [Example 335, N^1-(4-(Diethylamino)-2-(4-(3-(trifluoromethyl)benzylcarbamoyl)pyridin-2-yl)phenyl)-N^3-(23-(2-methoxyethyl)-2,5,8,11,14,17,20-heptaoxa-23-azapentacosan-25-yl)-N^3-methylisophthalamide, trifluoroacetate] | 1000 to 7940 nM | > 50 ng·h/mL | < 10 ng/mL | – | – |

Now from value to compound:

| IC50 [1] | AUC [2, 3] | Cmax [2, 3] | AUC [2, 4] | Cmax ([2]; Table 15, plasma 0.5-4 h) | Compound |
| --- | --- | --- | --- | --- | --- |
| 1000 to 7940 nM | < 10 ng·h/mL | < 10 ng/mL | – | – | CCN(CC)c1ccc(NC(=O)c2cccc(CCCOCCOCCOCCOCCOCCOCCOCCOCCOC)c2)c(-c2cc(C(=O)NCc3cccc(C(F)(F)F)c3)ccn2)c1 [Example 269, 2-(2-(3-(2,5,8,11,14,17,20,23,26-nonaoxanonacosan-29-yl)benzamido)-5-(diethylamino)phenyl)-N-(3-(trifluoromethyl)benzyl)isonicotinamide] |
| 1000 to 7940 nM | – | – | < 10 ng·h/mL | < 10 ng/mL | CCN(CC)c1ccc(NC(=O)c2cccc(CCCOCCOCCOCCOCCNS(=O)(=O)c3ccc(C(=O)N(CCOC)CCOCCOCCOCCOCCOCCOCCOC)cc3)c2)c(-c2cc(C(=O)NCc3cccc(C(F)(F)F)c3)ccn2)c1 [Example 272, 2-(2-(3-(1-(4-(2,5,8,11,14,17,20-heptaoxadocosan-22-yl(2-methoxyethyl)carbamoyl)phenylsulfonamido)-3,6,9,12-tetraoxapentadecan-15-yl)benzamido)-5-(diethylamino)phenyl)-N-(3-(trifluoromethyl)benzyl)isonicotinamide] |
| < 1000 nM | < 10 ng·h/mL | < 10 ng/mL | – | – | CCN(CC)c1ccc(NC(=O)c2cccc(CSCCOCCOCCOCCOCCOCCOCCOCCOC)c2)c(-c2cc(C(=O)N[C@H]3CCCc4ccccc43)ccn2)c1 [Example 286, (S)-2-(2-(3-(2,5,8,11,14,17,20,23-octaoxa-26-thiaheptacosan-27-yl)benzamido)-5-(diethylamino)phenyl)-N-(1,2,3,4-tetrahydronaphthalen-1-yl)isonicotinamide] |
